Assay results as given in patent publication US20090087417A1, “METHODS FOR PROMOTING DOPAMINERGIC NEURONAL DEVELOPMENT BY USING NG4A-SUBFAMILY AND WNT-LIGANDS” (priority 2002, published 2009).

Key:
Assay type in all cases: cell-based, rat
[1] = tested on: E14.5 ventral mesencephalic (VM) cultures; test: Proliferating clusters containing TH+ neurons in VM cultures; conditions: 10 units, 7 days in vitro
Description: Ventral mesencephala and cerebral cortices from embryos E13.5-14.5 obtained from timed-mated Sprague-Dawley rats were dissected, mechanically dissociated and plated at a final density of 1×10^5 cells/cm2 on poly-D-lysine coated 12- or 24-well plates in a defined, serum-free medium (N2, consisting of a 1:1 mixture of F12 and DMEM containing insulin (10 ng/ml), transferrin (100 μg/ml), putrescine (100 μM), progesterone (20 nM), selenium (30 nM), glucose (6 mg/ml), and bovine serum albumin (1 mg/ml)). Purified Type 1 astrocytes were obtained from mixed glial cultures derived from the VM or CTX of P1 rats according to a standard protocol (Wagner et al., 1999). After shaking and replating into 12-well plates, astrocytes were grown to confluency in 15% fetal bovine serum-containing media and changed to N2 medium, at which time freshly dissected VM or CTX cells were plated on top of the astrocytes at a density of 1×10^5 cells/cm2. […]
Only clearly stained cells were counted as positive cells. […] Quantitative immunocytochemical data on individual cells represent means and standard errors of counts obtained by a blinded observer from 10-20 non-overlapping fields (cells) or in the entire well (clusters), in each of 3-4 wells per condition from 3-4 independent experiments, unless stated otherwise. […]

[2] = tested on: ventral mesencephalic Nurr1+ neuronal precursors; test: Conversion of VM Nurr1+ precursors into Nurr1+/TH+ dopaminergic neurons (double immunostaining); conditions: VM cultures; control approximately 50%
Description: (§1) Ventral mesencephala and cerebral cortices from embryos E13.5-14.5 obtained from timed-mated Sprague-Dawley rats were dissected, mechanically dissociated and plated at a final density of 1×10^5 cells/cm2 on poly-D-lysine coated 12- or 24-well plates in a defined, serum-free medium (N2, consisting of a 1:1 mixture of F12 and DMEM containing insulin (10 ng/ml), transferrin (100 μg/ml), putrescine (100 μM), progesterone (20 nM), selenium (30 nM), glucose (6 mg/ml), and bovine serum albumin (1 mg/ml)). Purified Type 1 astrocytes were obtained from mixed glial cultures derived from the VM or CTX of P1 rats according to a standard protocol (Wagner et al., 1999). After shaking and replating into 12-well plates, astrocytes were grown to confluency in 15% fetal bovine serum-containing media and changed to N2 medium, at which time freshly dissected VM or CTX cells were plated on top of the astrocytes at a density of 1×10^5 cells/cm2. All factors were added once, at the initiation of culture, with the exception of 5-bromodeoxyuridine (BrdU), which was added 4-6 hours prior to fixation. Cultures were maintained in a humidified 5% CO2, 95% air incubator at 37° C. and fixed after given time periods with 4% paraformaldehyde for 45 minutes prior to immunocytochemical analysis.
(§2) B1A fibroblast lines were cotransfected with the mFz8CRD-IgG/pRK5 and the pIRES puro 2 (Clontech, BD Bioscience, Erembodegem, Belgium) plasmids, using Lipofectamine Plus reagent (Invitrogen, Lidingo, Sweden) according to the instruction of the manufacturer. Upon selection for puromycin resistance (1 μg/ml Sigma, Stockholm, Sweden), clones were isolated and expanded. A clone overexpressing Fz8CRD 700× (real time RT-PCR analysis) was identified. Harvesting and partial purification of Fz8CRD conditioned media were performed as described previously. In all the blocking experiments performed, the Fz8CRD and B1A control partial purified conditioned medias were used at a final concentration of 125-250 μg/ml. […]
Only clearly stained cells were counted as positive cells. […]

[3] = tested on: E13.5 primary cultures from the cerebral cortex; test: Induction of TH in Nurr1+ E13.5 cerebral cortex primary cultures; conditions: Wnt ligands or co-culture with P1 astrocytes
Description: as §1
(§3) Fixed cultures were incubated with one of the following antibodies, diluted appropriately in phosphate-buffered saline (PBS) containing 1% bovine serum albumin and 0.3% Triton-X 100: mouse anti-BrdU, 1:50 (DAKO, Denmark), mouse anti-β-tubulin, Type III (TuJ1), 1:250 (Sigma), mouse anti-TH, 1:1000 (Incstar, USA), rabbit anti-TH, 1:250 (PelFreeze); rabbit anti-Nurr1, 1:2000 (gift from Dr. T. Perlmann, Sweden), rabbit anti-Nurr1, 1:1000 (Santa Cruz, USA) or mouse anti-Nurr1, 1:250 (BD Transduction Laboratories, USA), rabbit anti Adh2 1:4000 (gift from Dr. R. Lindahl, South Carolina). Incubations were either carried out at 4° C. overnight, or at room temperature for 1 hour. Both processes yielded similar results. After washing, cultures were incubated for 1-3 hr with appropriate secondary antibodies (biotinylated 1:500; CY2-, FITC-, or rhodamine-coupled horse-anti-mouse IgG 1:100; or goat-anti-rabbit IgG 1:100; all from Vector, USA), in the same dilution buffer. Brightfield immunostaining was visualized with the Vector Laboratory ABC immunoperoxidase kit, using either NovaRed (red), or AEC (red), SG or 3-3′ dimaminobenzidine tetrahydrochloride (DAB 0.5 mg/ml)/nickel chloride (1.6 mg/ml) (gray/black), or VIP (violet) substrates. Double-staining was performed by sequential single staining as described. The order of staining was only critical for BrdU-double labeling, in which case the BrdU procedure was always performed second. […] Photos were acquired with a Zeiss Axioplan 100M microscope and collected with a Hamamatsu camera C4742-95 (with the QED imaging software).
Only clearly stained cells were counted as positive cells. Spheres were considered positive if they contained one or more positive cell. Quantitative immunocytochemical data on individual cells represent means and standard errors of counts obtained by a blinded observer from 10-20 non-overlapping fields (cells) or in the entire well (clusters), in each of 3-4 wells per condition from 3-4 independent experiments, unless stated otherwise. […]

[4] = tested on: E14.5 ventral mesencephalic precursor cultures; test: Number of TH+ neurons in E14.5 ventral mesencephalic precursor cultures; conditions: increasing concentrations of partially purified Wnt, 3 days
Description: as §1
B1A fibroblast lines stably overexpressing hemagglutanin-tagged Wnt-1a, 3a, or 5a (Shimizu H., 1997) were grown in standard complete media (DMEM+10% FBS) supplemented with 100 ug/ml G-418. For collection of conditioned media, cells were replated at low density in complete media and allowed to reach 50-75% confluency, at which point cells were washed and media was replaced with serum-free N2 (with 10 μM sodium butyrate) for 24 hours. Conditioned media from sister flasks was then harvested, pooled as lots and stored at −80° C. for up to 2 months. When compared to fresh CM, no loss of activity was observed when using this collection and storage routine. T1A CM was harvested using a similar procedure, with the exception that media was collected after 3 days in vitro.
For concentration, individual lots of CM were thawed at room temperature, divided into 80 ml aliquots, loaded onto Centricon-Plus 80 columns (Millipore) and concentrated via centrifugation according to the manufacturers instructions. Following concentration, aliquots were re-pooled and frozen at −80 C after a sample was taken for determination of protein content and Western blot analysis. In brief, 20 ug of protein was loaded onto a 10% polyacrylamide mini-gel and run under denaturing conditions at 150 V for approximately 30 minutes. After dry electroblot transfer onto PVDF membranes (Hybond P, Amersham Pharmacia Biotech, Upsalla, Sweden) and pre-incubation for 30 minutes in a blocking buffer consisting of 3% bovine serum albumin in Tris-Buffered Saline with […] Triton-X 100 (TBST), blots were incubated with mouse anti-hemagglutinin (Babco) diluted 1:1000 in TBST overnight at 4 C. After washing, blots were incubated with alkaline phosphatase-coupled goat anti-mouse IgG (Santa Cruz) diluted 1:1000 in TBST for 1 hour at room temperature. Blots were visualized using the Amersham ECF reagent and blue fluorescence quantitated using a Molecular Devices Storm 840 phosphoimager.
as §2

[5] = tested on: VM precursor cultures / Nurr1+ precursor cells; test: BrdU incorporation (proliferation) in VM precursor cultures
Description: as §1, §3
(§4) Only clearly stained cells were counted as positive cells. Spheres were considered positive if they contained one or more positive cell. Quantitative immunocytochemical data on individual cells represent means and standard errors of counts obtained by a blinded observer from 10-20 non-overlapping fields (cells) or in the entire well (clusters), in each of 3-4 wells per condition from 3-4 independent experiments, unless stated otherwise. For each variable, initial statistical comparisons were performed by a global ANOVA, with multiple factors of dose, time point, treatment and/or region; if significant interactions between treatment and any other variable existed, data were further divided into separate times, doses or regions. Fisher's protected least significant difference was used post hoc to identify specific points at which the treatments differed from controls (or each other) only when significant interactions between factor treatment and other variables occurred. Significance for all tests was assumed at the level of p<0.05. […]

VM cultures = test: TuJ1+ neurons and proliferating clusters, proportion dopaminergic, in VM cultures
Description: as §1, §3, §4

Wnt-3a
increase in the number of clusters containing one or more TH+ neurons [1]: not
proportion of Nurr1 positive cells that expressed TH (Nurr1+/TH+) [2]: 30%
proportion of Nurr1 positive cortical cells that expressed TH [3]: virtually no Nurr1 positive cortical cells co-expressed TH
TH+ cell numbers [4]: no effect at doses up to 100 units
increase in Nurr1 and BrdU double positive precursor cells (mitosis in Nurr1+ population) ([5]; 1 day in vitro): 3 fold
BrdU incorporation in VM precursor cultures ([5]; 3 days in vitro): increased
proportion of VM clusters containing dopaminergic neurons (VM cultures; FIG. 3e): less than 10%
total number of TuJ1+ neurons (VM cultures; FIG. 3f): did not increase
proportion of TH+ (dopaminergic) neurons (VM cultures; FIG. 3g): decreased
